Reference: patent US11834458B2, “Anti-cancer nuclear hormone receptor-targeting compounds” (Nuvation Bio Inc., priority 2021, dated 2023)
Like-named read-outs stand apart in the source and are kept apart here.

Legend:
AR = AR (Homo sapiens (Human), UniProt P10275, T878A); experiment: AR binding assay
Experimental: AR binding assay: To assess AR binding, test compound (top dose 10 μM, 4 fold serial dilution, 8 point dose response) and control (progesterone) were transferred to the assay plate. Cytosol from LnCaP cells was added to the plate, followed by addition of radiolabeled ^3H-R1881 at a final concentration of 1 nM. The plate was sealed, and the reaction was incubated at 300 rpm at 4° C. for 24 hrs. Radioligand absorption buffer (10 mM Tris-HCl, pH 7.4; 1.5 mM EDTA; 1 mM DTT; 0.25% charcoal; 0.0025% dextran) was then added to the plate, mixed, and incubated at 4° C. for 15 minutes. The plate was then centrifuged at 3000 rpm for 30 minutes at 4° C. The supernatant was transferred to the scint-tube and Tri-carb was used for scintillation counting. The data was analyzed using GraphPadPrism v5.0 and binding IC50 was determined as the concentration where 50% inhibition of radioligand binding was observed.

[1] = target: full-length androgen receptor (Homo sapiens (Human), UniProt P10275); experiment: AR antagonism assay; format: cell-based
Chain of full-length androgen receptor (P10275 whole entry): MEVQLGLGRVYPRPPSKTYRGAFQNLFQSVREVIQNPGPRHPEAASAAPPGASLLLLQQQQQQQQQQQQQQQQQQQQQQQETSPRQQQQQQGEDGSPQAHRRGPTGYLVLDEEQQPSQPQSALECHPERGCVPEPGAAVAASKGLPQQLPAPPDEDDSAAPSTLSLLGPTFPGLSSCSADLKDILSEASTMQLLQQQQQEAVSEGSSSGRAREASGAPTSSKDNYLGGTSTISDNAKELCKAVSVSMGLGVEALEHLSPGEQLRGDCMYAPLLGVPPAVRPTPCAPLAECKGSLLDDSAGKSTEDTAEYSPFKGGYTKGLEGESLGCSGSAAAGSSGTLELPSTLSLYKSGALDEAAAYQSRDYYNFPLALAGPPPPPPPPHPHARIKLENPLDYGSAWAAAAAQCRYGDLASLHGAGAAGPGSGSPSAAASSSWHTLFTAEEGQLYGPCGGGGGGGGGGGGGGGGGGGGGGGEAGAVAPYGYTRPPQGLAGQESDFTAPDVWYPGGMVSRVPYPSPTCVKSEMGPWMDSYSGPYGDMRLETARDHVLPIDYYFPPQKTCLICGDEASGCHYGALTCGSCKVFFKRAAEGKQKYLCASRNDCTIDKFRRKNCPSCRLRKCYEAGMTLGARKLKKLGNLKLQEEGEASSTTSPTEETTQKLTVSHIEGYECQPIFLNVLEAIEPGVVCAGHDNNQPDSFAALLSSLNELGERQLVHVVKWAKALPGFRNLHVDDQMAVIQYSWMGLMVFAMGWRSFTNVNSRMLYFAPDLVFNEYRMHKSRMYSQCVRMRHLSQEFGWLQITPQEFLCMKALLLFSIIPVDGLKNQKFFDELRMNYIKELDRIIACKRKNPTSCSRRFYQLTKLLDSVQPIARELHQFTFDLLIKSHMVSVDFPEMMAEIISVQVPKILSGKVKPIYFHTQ
Experimental: AR antagonism assay: To evaluate AR antagonist activity, test compound was added to the assay plate (top dose 10 μM, 3 fold serial dilution, 10 point dose response). HEK293 cells stably expressing the full-length androgen receptor were seeded at a density of 20,000 cells/well in the assay plate. The assay plate was then incubated at room temperature for 10 minutes and at 37° C., 5% CO2 for 20 minutes. Testosterone was added to the assay plate at 1 nM final concentration and the assay plate incubated at 37° C., 5% CO2 for 20 h. After the incubation period, Steady-glo was added to the assay plate and mixed at room temperature for 20 minutes on an orbital shaker, before reading out on the EnVision plate reader.

LNCap cells = experiment: Cell viability assay, LNCap; format: cell-based; conditions: Homo sapiens, 144 h
Experimental: (§1) Cell viability assay: LNCap, 22Rv1, MCF7, MDAMB361, T47D, and IEC6 cells are seeded at a density of 500-2000 cells/well in 96 well plates, and a ‘T0’ (timepoint 0) was included along with the assay plate. The plates are then incubated at 37° C., 5% CO2 in a cell culture incubator overnight. On the next day, the ‘T0’ plate was assayed using CellTiterGlo (Promega, Inc) according to the manufacturer's instructions. The appropriate compounds are diluted in DMSO and added to the assay plate (final DMSO concentration of 0.1-0.2%) on the next day. The assay plates are incubated for 6 days at 37° C., 5% CO2. After the incubation period, the plates are assayed using CellTiterGlo (Promega, Inc) according to the manufacturer's instructions and luminescence was read on the EnVision plate reader. Inhibition of the tested compounds was determined by the following formula: Inhibition rate (%)=(1−(RLU compound−RLU day0)/(RLU control−RLU day0))*100%. GraphPadPrism was used to analyze the data and determine GI50/IC50 values.

22Rv1 cells = experiment: Cell viability assay, 22Rv1; format: cell-based; conditions: Homo sapiens
Experimental: as §1

IEC6 cells = experiment: Cell viability assay, IEC6; format: cell-based; conditions: Rattus norvegicus
Experimental: as §1

T47D cells = experiment: Cell viability assay, T47D; format: cell-based; conditions: Homo sapiens, T47D, 144 h, read-out: T47D (GI50, nM)
Experimental: as §1

MCF7 cells = experiment: Cell viability assay, MCF7; format: cell-based; conditions: Homo sapiens, MCF7, 144 h, read-out: MCF7 (GI50, nM)
Experimental: as §1

MDAMB361 cells = experiment: Cell viability assay, MDAMB361; format: cell-based; conditions: Homo sapiens, MDA-MB-361, 144 h, read-out: MDA-MB-361 (GI50, nM)
Experimental: as §1

[2] = HEK293 cells stably expressing full-length androgen receptor, testosterone 1 nM, 20 h, read-out: AR antagonism
[3] = LNCaP, read-out: LNCap (GI50, nM)
[4] = 22Rv1, 144 h, read-out: 22RV1 (GI50, nM)
[5] = IEC-6, 144 h, read-out: IEC-6 (IC50, nM)
[6] = cytosol from LnCaP cells, 3H-R1881 1 nM, 4° C. 24 hrs, read-out: AR binding
[7] = LNCap cells, 6 days, CellTiterGlo, read-out: LNCap (GI50)
[8] = 144 h, 22RV1 cells, 6 days, CellTiterGlo, read-out: 22RV1 (GI50)
[9] = 144 h, IEC-6 cells, 6 days, CellTiterGlo, read-out: IEC-6 (IC50)

Chain of AR (P10275 whole entry T878A): as the sequence (P10275 whole entry) above, with T878A counted along it

SMILES | IC50 (AR) | IC50 [1, 2] | GI50 (LNCap cells; [3]) | GI50 (22Rv1 cells; [4]) | IC50 (IEC6 cells; [5]) | IC50 (AR; [6]) | IC50 [1] | GI50 (LNCap cells; [7]) | GI50 (22Rv1 cells; [8]) | IC50 (IEC6 cells; [9]) | GI50 (T47D cells) | GI50 (MCF7 cells) | GI50 (MDAMB361 cells)
CC[C@@]1(O)C(=O)OCc2c1cc1n(c2=O)Cc2cc3c(CN(C)C)c(OC(=O)N4CCN(CCCCCCO[C@@H]5CC[C@@H]6[C@H]7CC[C@@H]8CC(=O)CC[C@@]8(C)[C@@H]7CC[C@]65C)CC4)ccc3nc2-1 [Compound 8, (S)-10-((Dimethylamino)methyl)-4-ethyl-4-hydroxy-3,14-dioxo-3,4,12,14-tetrahydro-1H-pyrano[3′,4′:6,7]indolizino[1,2-b]quinolin-9-yl 4-(6-(((5R,8S,9R,10R,13R,14R,17R)-10,13-dimethyl-3-oxohexadecahydro-1H-cyclopenta[a]phenanthren-17-yl)oxy)hexyl)piperazine-1-carboxylate] | 10 to 500 nM | > 1000 nM | 10 to 500 nM | 10 to 500 nM | > 1000 nM | – | – | – | – | – | – | – | –
CC[C@@]1(O)C(=O)OCc2c1cc1n(c2=O)Cc2cc3c(CN4CCN(CC5CCN(c6ccc(C(=O)N[C@H]7CC[C@H](Oc8ccc(C#N)c(Cl)c8)CC7)nn6)CC5)CC4)c(O)ccc3nc2-1 [Compound 11, N-((1r,4r)-4-(3-Chloro-4-cyanophenoxy)cyclohexyl)-6-(4-((4-(((S)-4-ethyl-4,9-dihydroxy-3,14-dioxo-3,4,12,14-tetrahydro-1H-pyrano[3′,4′:6,7]indolizino[1,2-b]quinolin-10-yl)methyl)piperazin-1-yl)methyl)piperidin-1-yl)pyridazine-3-carboxamide] | – | – | – | – | – | 10 to 500 nM | 10 to 500 nM | 10 to 500 nM | 10 to 500 nM | 501 to 1000 nM | – | – | –
CC[C@@]1(O)C(=O)OCc2c1cc1n(c2=O)Cc2cc3c(CN4CCN(C(=O)CCCCCOc5ccc(C(=O)N[C@H]6CC[C@H](Oc7ccc(C#N)c(Cl)c7)CC6)cc5)CC4)c(O)ccc3nc2-1 [Compound 12, N-((1r,4r)-4-(3-Chloro-4-cyanophenoxy)cyclohexyl)-4-((6-(4-(((S)-4-ethyl-4,9-dihydroxy-3,14-dioxo-3,4,12,14-tetrahydro-1H-pyrano[3′,4′:6,7]indolizino[1,2-b]quinolin-10-yl)methyl)piperazin-1-yl)-6-oxohexyl)oxy)benzamide] | – | – | – | – | – | > 1000 nM | 10 to 500 nM | 10 to 500 nM | 501 to 1000 nM | > 1000 nM | – | – | –
CC[C@@]1(O)C(=O)OCc2c1cc1n(c2=O)Cc2cc3c(CN4CCN(C(=O)C5CCN(c6ccc(C(=O)N[C@H]7CC[C@H](Oc8ccc(C#N)c(Cl)c8)CC7)nn6)CC5)CC4)c(O)ccc3nc2-1 [Compound 14, N-((1r,4r)-4-(3-Chloro-4-cyanophenoxy)cyclohexyl)-6-(4-(4-(((S)-4-ethyl-4,9-dihydroxy-3,14-dioxo-3,4,12,14-tetrahydro-1H-pyrano[3′,4′:6,7]indolizino[1,2-b]quinolin-10-yl)methyl)piperazine-1-carbonyl)piperidin-1-yl)pyridazine-3-carboxamide] | – | – | – | – | – | 10 to 500 nM | 10 to 500 nM | 10 to 500 nM | 10 to 500 nM | > 1000 nM | – | – | –
CC[C@@]1(O)C(=O)OCc2c1cc1n(c2=O)Cc2cc3c(CN(C)C)c(OC(=O)N4[C@H](C)CN(CCCCCCN(C)c5ccc([C@H]6C[C@@]7(C)[C@@H](CC[C@]7(OC(C)=O)C(C)=O)[C@@H]7CCC8=CC(=O)CCC8=C76)cc5)C[C@H]4C)ccc3nc2-1 [Compound 16, (S)-10-((Dimethylamino)methyl)-4-ethyl-4-hydroxy-3,14-dioxo-3,4,12,14-tetrahydro-1H-pyrano[3′,4′:6,7]indolizino[1,2-b]quinolin-9-yl (2R,6R)-4-(6-((4-((8S,11R,13S,14S,17R)-17-acetoxy-17-acetyl-13-methyl-3-oxo-2,3,6,7,8,11,12,13,14,15,16,17-dodecahydro-1H-cyclopenta[a]phenanthren-11-yl)phenyl)(methyl)amino)hexyl)-2,6-dimethylpiperazine-1-carboxylate] | – | – | 501 to 1000 nM | – | > 1000 nM | – | – | – | – | – | 10 to 500 nM | 10 to 500 nM | > 1000 nM
CC[C@@]1(O)C(=O)OCc2c1cc1n(c2=O)Cc2cc3c(COC(C)(C)C)c(OC(=O)N4CCN(CCCCCCN(C)c5ccc([C@H]6C[C@@]7(C)[C@@H](CC[C@]7(OC(C)=O)C(C)=O)[C@@H]7CCC8=CC(=O)CCC8=C76)cc5)CC4)ccc3nc2-1 [Compound 17, (S)-10-(tert-Butoxymethyl)-4-ethyl-4-hydroxy-3,14-dioxo-3,4,12,14-tetrahydro-1H-pyrano[3′,4′:6,7]indolizino[1,2-b]quinolin-9-yl 4-(6-((4-((8S,11R,13S,14S,17R)-17-acetoxy-17-acetyl-13-methyl-3-oxo-2,3,6,7,8,11,12,13,14,15,16,17-dodecahydro-1H-cyclopenta[a]phenanthren-11-yl)phenyl)(methyl)amino)hexyl)piperazine-1-carboxylate] | – | – | > 1000 nM | – | > 1000 nM | – | – | – | – | – | > 1000 nM | > 1000 nM | > 1000 nM
CC[C@@]1(O)C(=O)OCc2c1cc1n(c2=O)Cc2cc3c(CN4CCC(N(C)C(=O)CO[C@H]5CC[C@H]6[C@@H]7CC[C@H]8CC(=O)CC[C@]8(C)[C@H]7CC[C@]56C)CC4)c(O)ccc3nc2-1 [Compound 18, 2-(((5S,8R,9S,10S,13S,14S,17S)-10,13-Dimethyl-3-oxohexadecahydro-1H-cyclopenta[a]phenanthren-17-yl)oxy)-N-(1-(((S)-4-ethyl-4,9-dihydroxy-3,14-dioxo-3,4,12,14-tetrahydro-1H-pyrano[3′,4′:6,7]indolizino[1,2-b]quinolin-10-yl)methyl)piperidin-4-yl)-N-methylacetamide] | – | – | – | – | – | 10 to 500 nM | > 1000 nM | 10 to 500 nM | 10 to 500 nM | > 1000 nM | – | – | –
CC[C@@]1(O)C(=O)OCc2c1cc1n(c2=O)Cc2cc3c(CN(C)C)c(OC(=O)N4CCC(N(C)C(=O)CO[C@H]5CC[C@H]6[C@@H]7CC[C@H]8CC(=O)CC[C@]8(C)[C@H]7CC[C@]56C)CC4)ccc3nc2-1 [Compound 20, (S)-10-((Dimethylamino)methyl)-4-ethyl-4-hydroxy-3,14-dioxo-3,4,12,14-tetrahydro-1H-pyrano[3′,4′:6,7]indolizino[1,2-b]quinolin-9-yl 4-(2-(((5S,8R,9S,10S,13S,14S,17S)-10,13-dimethyl-3-oxohexadecahydro-1H-cyclopenta[a]phenanthren-17-yl)oxy)-N-methylacetamido)piperidine-1-carboxylate] | 10 to 500 nM | > 1000 nM | 10 to 500 nM | 10 to 500 nM | > 1000 nM | – | – | – | – | – | – | – | –
CC[C@@]1(O)C(=O)OCc2c1cc1n(c2=O)Cc2cc3c(CN(C)C)c(OC(=O)N(C)C4CCN(C(=O)CO[C@H]5CC[C@H]6[C@@H]7CC[C@H]8CC(=O)CC[C@]8(C)[C@H]7CC[C@]56C)CC4)ccc3nc2-1 [Compound 21, (S)-10-((Dimethylamino)methyl)-4-ethyl-4-hydroxy-3,14-dioxo-3,4,12,14-tetrahydro-1H-pyrano[3′,4′:6,7]indolizino[1,2-b]quinolin-9-yl (1-(2-(((5S,8R,9S,10S,13S,14S,17S)-10,13-dimethyl-3-oxohexadecahydro-1H-cyclopenta[a]phenanthren-17-yl)oxy)acetyl)piperidin-4-yl)(methyl)carbamate] | 10 to 500 nM | > 1000 nM | 10 to 500 nM | 10 to 500 nM | > 1000 nM | – | – | – | – | – | – | – | –
